Measured values reported in PubChem BioAssay AID1963831 (Molecular Pharmacology Branch, DTP, NCI, 2024).

Test system: 889142-216-R-J1-PDC complex spheroid viability
Assay: Anticancer human tumor 889142-216-R-J1-PDC patient-derived bladder carcinoma cell line growth inhibition [POLQ]
Details: for IC50: curve of first compound; for viability, T/C: stronger effect = lower value
Summary of the method: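 Growth inhibition in 3D: complex spheroids (tumor PDC, HUVEC, MSC) treated with POLQ inhibitor combinations; where Cmax unknown, highest tested concentration 10 microM, except SN-38 at 1 microM.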

[1] = second compound 0.0316 µM, first compound 0.0316 µM
[2] = second compound 0.0316 µM, first compound 0.1 µM
[3] = second compound 0.0316 µM, first compound 0.316 µM
[4] = second compound 0.0316 µM, first compound 1 µM
[5] = second compound 0.0316 µM, first compound 3.16 µM
[6] = second compound 0.0316 µM, first compound 10 µM
[7] = second compound 0.1 µM, first compound 0.0316 µM
[8] = second compound 0.1 µM, first compound 0.1 µM
[9] = second compound 0.1 µM, first compound 0.316 µM
[10] = second compound 0.1 µM, first compound 1 µM
[11] = second compound 0.1 µM, first compound 3.16 µM
[12] = second compound 0.1 µM, first compound 10 µM
[13] = second compound 0.316 µM, first compound 0.0316 µM
[14] = second compound 0.316 µM, first compound 0.1 µM
[15] = second compound 0.316 µM, first compound 0.316 µM
[16] = second compound 0.316 µM, first compound 1 µM
[17] = second compound 0.316 µM, first compound 3.16 µM
[18] = second compound 0.316 µM, first compound 10 µM
[19] = second compound 1 µM, first compound 0.0316 µM
[20] = second compound 1 µM, first compound 0.1 µM
[21] = second compound 1 µM, first compound 0.316 µM
[22] = second compound 1 µM, first compound 1 µM
[23] = second compound 1 µM, first compound 3.16 µM
[24] = second compound 1 µM, first compound 10 µM
[25] = second compound 3.16 µM, first compound 0.0316 µM
[26] = second compound 3.16 µM, first compound 0.1 µM
[27] = second compound 3.16 µM, first compound 0.316 µM
[28] = second compound 3.16 µM, first compound 1 µM
[29] = second compound 3.16 µM, first compound 3.16 µM
[30] = second compound 3.16 µM, first compound 10 µM
[31] = second compound 10 µM, first compound 0.0316 µM
[32] = second compound 10 µM, first compound 0.1 µM
[33] = second compound 10 µM, first compound 0.316 µM
[34] = second compound 10 µM, first compound 1 µM
[35] = second compound 10 µM, first compound 3.16 µM
[36] = second compound 10 µM, first compound 10 µM
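Note: spheroids exposed to compounds for seven days.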
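Throughout, for viability, T/C: 100% = DMSO vehicle control viability.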

CC1COCCN1c1cc(C2(S(C)(=N)=O)CC2)nc(-c2ccnc3[nH]ccc23)n1 (stereo not drawn) + Nc1ccc(C#CCN(C(=O)Cc2ncc(C(F)(F)F)cc2C(F)(F)F)c2ccc(F)cc2)nn1
IC50 (second compound 0.0316 µM): 2.9 µM | IC50 (second compound 0.1 µM): 2.59 µM | IC50 (second compound 0.316 µM): > 10 µM | IC50 (second compound 1 µM): > 10 µM | IC50 (second compound 3.16 µM): > 10 µM | IC50 (second compound 10 µM): > 10 µM | viability, T/C [1]: 101% | viability, T/C [2]: 82% | viability, T/C [3]: 70.8% | viability, T/C [4]: 59.3% | viability, T/C [5]: 46.1% | viability, T/C [6]: 45% | viability, T/C [7]: 98% | viability, T/C [8]: 89% | viability, T/C [9]: 80.8% | viability, T/C [10]: 56.1% | viability, T/C [11]: 51.5% | viability, T/C [12]: 42.4% | viability, T/C [13]: 89.5% | viability, T/C [14]: 74.7% | viability, T/C [15]: 81.8% | viability, T/C [16]: 60.9% | viability, T/C [17]: 48.9% | viability, T/C [18]: 51.8% | viability, T/C [19]: 81.8% | viability, T/C [20]: 79.2% | viability, T/C [21]: 95.3% | viability, T/C [22]: 63.2% | viability, T/C [23]: 58.6% | viability, T/C [24]: 42.8% | viability, T/C [25]: 81.7% | viability, T/C [26]: 89.3% | viability, T/C [27]: 72.1% | viability, T/C [28]: 59.2% | viability, T/C [29]: 53.9% | viability, T/C [30]: 56.5% | viability, T/C [31]: 107% | viability, T/C [32]: 99.2% | viability, T/C [33]: 111% | viability, T/C [34]: 62.4% | viability, T/C [35]: 61% | viability, T/C [36]: 48.4%

CCc1cc2c(N3CCc4c(cc(Cn5ccnc5)cc4-c4cn(C)nc4C(F)(F)F)C3=O)cc(C)nc2c(OC)n1 + Nc1ccc(C#CCN(C(=O)Cc2ncc(C(F)(F)F)cc2C(F)(F)F)c2ccc(F)cc2)nn1
IC50 (second compound 0.0316 µM): > 10 µM | IC50 (second compound 0.1 µM): > 10 µM | IC50 (second compound 0.316 µM): > 10 µM | IC50 (second compound 1 µM): > 10 µM | IC50 (second compound 3.16 µM): > 10 µM | IC50 (second compound 10 µM): > 10 µM | viability, T/C [1]: 98.2% | viability, T/C [2]: 96.9% | viability, T/C [3]: 109% | viability, T/C [4]: 126% | viability, T/C [5]: 108% | viability, T/C [6]: 80.2% | viability, T/C [7]: 123% | viability, T/C [8]: 97.6% | viability, T/C [9]: 126% | viability, T/C [10]: 133% | viability, T/C [11]: 113% | viability, T/C [12]: 79.5% | viability, T/C [13]: 104% | viability, T/C [14]: 119% | viability, T/C [15]: 123% | viability, T/C [16]: 135% | viability, T/C [17]: 126% | viability, T/C [18]: 75.2% | viability, T/C [19]: 125% | viability, T/C [20]: 116% | viability, T/C [21]: 132% | viability, T/C [22]: 135% | viability, T/C [23]: 109% | viability, T/C [24]: 67.9% | viability, T/C [25]: 109% | viability, T/C [26]: 125% | viability, T/C [27]: 119% | viability, T/C [28]: 114% | viability, T/C [29]: 116% | viability, T/C [30]: 97.3% | viability, T/C [31]: 97.8% | viability, T/C [32]: 126% | viability, T/C [33]: 112% | viability, T/C [34]: 124% | viability, T/C [35]: 104% | viability, T/C [36]: 93.4%

COc1ccc([C@@H](O)c2cc(-c3ncnc4cc(N5CCOCC5)ccc34)c(F)cc2Cl)nn1 + Nc1ccc(C#CCN(C(=O)Cc2ncc(C(F)(F)F)cc2C(F)(F)F)c2ccc(F)cc2)nn1
IC50 (second compound 0.0316 µM): 3.14 µM | IC50 (second compound 0.1 µM): 5.02 µM | IC50 (second compound 0.316 µM): 4.55 µM | IC50 (second compound 1 µM): 5.06 µM | IC50 (second compound 3.16 µM): 5.83 µM | IC50 (second compound 10 µM): 6.74 µM | viability, T/C [1]: 84.6% | viability, T/C [2]: 80.6% | viability, T/C [3]: 81.5% | viability, T/C [4]: 87.8% | viability, T/C [5]: 49.8% | viability, T/C [6]: 35.2% | viability, T/C [7]: 113% | viability, T/C [8]: 77.5% | viability, T/C [9]: 80% | viability, T/C [10]: 73.4% | viability, T/C [11]: 56.8% | viability, T/C [12]: 39.5% | viability, T/C [13]: 87.5% | viability, T/C [14]: 95% | viability, T/C [15]: 72.9% | viability, T/C [16]: 72.8% | viability, T/C [17]: 54% | viability, T/C [18]: 39.6% | viability, T/C [19]: 86.2% | viability, T/C [20]: 72.1% | viability, T/C [21]: 72.4% | viability, T/C [22]: 65.9% | viability, T/C [23]: 62.2% | viability, T/C [24]: 37.8% | viability, T/C [25]: 74.3% | viability, T/C [26]: 65.4% | viability, T/C [27]: 73.8% | viability, T/C [28]: 65.2% | viability, T/C [29]: 63.2% | viability, T/C [30]: 39.3% | viability, T/C [31]: 105% | viability, T/C [32]: 77.9% | viability, T/C [33]: 96.7% | viability, T/C [34]: 60.1% | viability, T/C [35]: 56.6% | viability, T/C [36]: 47.5%

O=C(Nc1ccc(O)c(NS(=O)(=O)c2ccc(F)cc2)c1)c1ccc(-c2ccccc2)cc1 + Nc1ccc(C#CCN(C(=O)Cc2ncc(C(F)(F)F)cc2C(F)(F)F)c2ccc(F)cc2)nn1
IC50 (second compound 0.0316 µM): > 10 µM | IC50 (second compound 0.1 µM): > 10 µM | IC50 (second compound 0.316 µM): > 10 µM | IC50 (second compound 1 µM): > 10 µM | IC50 (second compound 3.16 µM): > 10 µM | IC50 (second compound 10 µM): > 10 µM | viability, T/C [1]: 118% | viability, T/C [2]: 101% | viability, T/C [3]: 83.9% | viability, T/C [4]: 110% | viability, T/C [5]: 127% | viability, T/C [6]: 72% | viability, T/C [7]: 104% | viability, T/C [8]: 90.7% | viability, T/C [9]: 94.1% | viability, T/C [10]: 126% | viability, T/C [11]: 129% | viability, T/C [12]: 87.3% | viability, T/C [13]: 96.2% | viability, T/C [14]: 82.1% | viability, T/C [15]: 110% | viability, T/C [16]: 105% | viability, T/C [17]: 134% | viability, T/C [18]: 73% | viability, T/C [19]: 117% | viability, T/C [20]: 84.7% | viability, T/C [21]: 97.7% | viability, T/C [22]: 148% | viability, T/C [23]: 119% | viability, T/C [24]: 78.4% | viability, T/C [25]: 105% | viability, T/C [26]: 83.4% | viability, T/C [27]: 135% | viability, T/C [28]: 139% | viability, T/C [29]: 127% | viability, T/C [30]: 64.1% | viability, T/C [31]: 110% | viability, T/C [32]: 88% | viability, T/C [33]: 118% | viability, T/C [34]: 113% | viability, T/C [35]: 101% | viability, T/C [36]: 81%
